Assay: Preclinical incorporation dosimetry: whole-body PET/CT in piglets, scaled to human, OLINDA 2.1, ICRP103
Type: in vivo, juvenile pigs
Description: Three piglets (age: ~6 weeks, weight: ~13–15 kg) were fasted on the day of imaging and received an intranuscular. injection of 1 mL azaperone and 4 mL ketamine to introduce anesthesia. […] During narcosis, the animals maintained spontaneous respiration and no mandatory ventilation was applied. The subjects were sequentially imaged after an iv injection (contralateral ear vein) of 156 ± 54 MBq [^18F]FACH (0.63 ± 0.49 µg) in a PET/CT system (Biograph16, SIEMENS, Erlangen, Germany). The piglets were positioned prone with legs alongside the body on a custom-made plastic trough including a piglet head-holder (Figure 5). The PET acquisition was divided into a sequential (4 × 9 min, 3 × 12 min) and a static part (1 × 24 min, 1 × 30 min, 1 × 36 min), each of which was preceded by a low-dose CT to acquire structural data for attenuation correction (AC) and anatomical orientation (Figure 6). Post mortem, the urine was collected by bladder punctuation, weighted, and divided into three 1 mL samples for activity measurements in a gamma-counter (Packard Cobra II 5003 Auto Gamma Counting System, GMI, Ramsey, MN, USA).
PET data reconstruction was done using low-dose CT attenuation correction (AC) and an iterative OSEM algorithm with 4 iterations and 8 subsets. As the PET/CT system is in daily clinical use, it is periodically subjected to detector normalization and activity calibration. Furthermore, all peripheral activity-measuring devices to be used for the investigation (dose calibrator, gamma counter) are cross-calibrated in terms of timing and a radioactivity adjustment.
The image data were analyzed with ROVER (ABX, Radeberg, Germany; v. 3.0.46h). The organs were identified and manually delineated using 3D volumes of interest (VOI). The CT data were used for anatomical orientation and for image registration with the PET data. Relevant source organs like brain, gall bladder, large intestine, small intestine, stomach, heart, kidneys, liver, lungs, pancreas, red marrow (backbone, pelvis, sternum), spleen, thyroid, testes, skeleton (bone), and the urinary bladder were delineated and the time–activity data transformed into percentage of injected dose (%IDorgan) with Equation (2). (2) %IDorgant=Aorgant×cscant/A0t [%] where Aorgant is the activity in the organ at the time t; cscant is a calibration factor representing the theoretical body activity (derived from a whole body mask of a volume that equals the body dimentions of the animal) decay corrected to t and divided by the imaged body activity in each image frame at the time t, and A0t is the injected activity decay corrected to t0.
The dose calculation has been described by our group in detail before. Briefly, due to differences in weight, size, and metabolic rates between the animal species and the human volunteers, it is necessary to map the preclinical extracted biodistribution data to human circumstances. Thus, the animal biokinetic data (time scale and %ID values) were adapted to the human circumstances according to [22] to fit the human weight, size, and metabolic rates (Equations (3) and (4)). (3) thuman=tanimal[mhuman/manimal]^0.25 (4) [%ID]/organhuman=[%ID]/ganimal×mTBanimal[g]/mTBhuman[g]×morganhuman[g]
The TIACs were estimated by exponential fitting and the dosimetry estimation was performed using OLINDA/EXM software (v. 2.1). Finally, organ doses (OD) were estimated and multiplied by tissue weighting factors as published in ICRP103 [20].

[1] = mean of three piglets, ICRP103 wT
[2] = mean of three piglets, adult male model
[3] = mean ± SD, three piglets, ICRP103 wT

CCCN(CCC[18F])c1ccc(/C=C(\C#N)C(=O)O)c(OC)c1 [[^18F]FACH, (E)-2-cyano-3-{4-[(3-[^18F]fluoropropyl)(propyl)amino]-2-methoxyphenyl}acrylic acid]
Effective dose contribution HT wT, Heart Wall (FACHpig3): 8.18E-05 mSv/MBq | Effective dose contribution HT wT, Kidneys (FACHpig3): 2.59E-04 mSv/MBq | Effective dose contribution HT wT, Left colon (FACHpig3): 5.06E-04 mSv/MBq | Effective dose contribution HT wT, Liver (FACHpig3): 1.37E-03 mSv/MBq | Effective dose contribution HT wT, Lungs (FACHpig3): 9.15E-04 mSv/MBq | Effective dose contribution HT wT, Osteogenic Cells (FACHpig3): 2.03E-04 mSv/MBq | Effective dose contribution HT wT, Pancreas (FACHpig3): 7.24E-05 mSv/MBq | Effective dose contribution HT wT, Prostate (FACHpig3): 5.95E-05 mSv/MBq | Effective dose contribution HT wT, Rectum (FACHpig3): 2.92E-04 mSv/MBq | Effective dose contribution HT wT, Red Marrow (FACHpig3): 1.47E-03 mSv/MBq | Effective dose contribution HT wT, Right colon (FACHpig3): 9.75E-04 mSv/MBq | Effective dose contribution HT wT, Salivary Glands (FACHpig3): 6.33E-05 mSv/MBq | Effective dose contribution HT wT, Small Intestine (FACHpig3): 9.09E-05 mSv/MBq | Effective dose contribution HT wT, Spleen (FACHpig3): 7.43E-05 mSv/MBq | Effective dose contribution HT wT, Stomach Wall (FACHpig3): 9.98E-04 mSv/MBq | Effective dose contribution HT wT, Testes (FACHpig3): 2.90E-04 mSv/MBq | Effective dose contribution HT wT, Thymus (FACHpig3): 6.50E-05 mSv/MBq | Effective dose contribution HT wT, Thyroid (FACHpig3): 2.77E-04 mSv/MBq | Effective dose contribution HT wT, Total Body (FACHpig3): 0.00E+00 mSv/MBq | Effective dose contribution HT wT, Urinary Bladder Wall (FACHpig3): 3.52E-03 mSv/MBq | Organ equivalent dose HT, Adrenals (FACHpig3): 1.47E-02 mSv/MBq | Organ equivalent dose HT, Brain (FACHpig3): 4.10E-03 mSv/MBq | Organ equivalent dose HT, Esophagus (FACHpig3): 8.11E-03 mSv/MBq | Organ equivalent dose HT, Eyes (FACHpig3): 5.63E-03 mSv/MBq | Organ equivalent dose HT, Gallbladder Wall (FACHpig3): 8.72E-02 mSv/MBq | Organ equivalent dose HT, Heart Wall (FACHpig3): 8.86E-03 mSv/MBq | Organ equivalent dose HT, Kidneys (FACHpig3): 2.81E-02 mSv/MBq | Organ equivalent dose HT, Left colon (FACHpig3): 1.04E-02 mSv/MBq | Organ equivalent dose HT, Liver (FACHpig3): 3.42E-02 mSv/MBq | Organ equivalent dose HT, Lungs (FACHpig3): 7.62E-03 mSv/MBq | Organ equivalent dose HT, Osteogenic Cells (FACHpig3): 2.03E-02 mSv/MBq | Organ equivalent dose HT, Pancreas (FACHpig3): 7.85E-03 mSv/MBq | Organ equivalent dose HT, Prostate (FACHpig3): 1.29E-02 mSv/MBq | Organ equivalent dose HT, Rectum (FACHpig3): 1.27E-02 mSv/MBq | Organ equivalent dose HT, Red Marrow (FACHpig3): 1.22E-02 mSv/MBq | Organ equivalent dose HT, Right colon (FACHpig3): 2.01E-02 mSv/MBq | Organ equivalent dose HT, Salivary Glands (FACHpig3): 6.33E-03 mSv/MBq | Organ equivalent dose HT, Small Intestine (FACHpig3): 9.84E-03 mSv/MBq | Organ equivalent dose HT, Spleen (FACHpig3): 8.05E-03 mSv/MBq | Organ equivalent dose HT, Stomach Wall (FACHpig3): 8.32E-03 mSv/MBq | Organ equivalent dose HT, Testes (FACHpig3): 7.26E-03 mSv/MBq | Organ equivalent dose HT, Thymus (FACHpig3): 7.04E-03 mSv/MBq | Organ equivalent dose HT, Thyroid (FACHpig3): 6.93E-03 mSv/MBq | Organ equivalent dose HT, Total Body (FACHpig3): 8.63E-03 mSv/MBq | Organ equivalent dose HT, Urinary Bladder Wall (FACHpig3): 8.80E-02 mSv/MBq | ED Contr., Adrenals [1]: 1.31 × 10^−4 mSv/MBq | ED Contr., Brain [1]: 4.69 × 10^−5 mSv/MBq | ED Contr., Esophagus [1]: 3.61 × 10^−4 mSv/MBq | ED Contr., Eyes [1]: 0.00 mSv/MBq | ED Contr., Gall Bladder Wall [1]: 4.65 × 10^−4 mSv/MBq | ED Contr., Heart Wall [1]: 8.72 × 10^−5 mSv/MBq | ED Contr., Kidneys [1]: 2.42 × 10^−4 mSv/MBq | ED Contr., Left Colon [1]: 6.63 × 10^−4 mSv/MBq | ED Contr., Liver [1]: 9.34 × 10^−4 mSv/MBq | ED Contr., Lungs [1]: 9.46 × 10^−4 mSv/MBq | ED Contr., Osteogenic Cells [1]: 2.12 × 10^−4 mSv/MBq | ED Contr., Pancreas [1]: 2.81 × 10^−4 mSv/MBq | ED Contr., Prostate [1]: 6.01 × 10^−5 mSv/MBq | ED Contr., Rectum [1]: 3.18 × 10^−4 mSv/MBq | ED Contr., Red Marrow [1]: 1.67 × 10^−3 mSv/MBq | ED Contr., Right Colon [1]: 1.16 × 10^−3 mSv/MBq | ED Contr., Salivary Glands [1]: 7.90 × 10^−5 mSv/MBq | ED Contr., Small Intestine [1]: 1.71 × 10^−4 mSv/MBq | ED Contr., Spleen [1]: 8.37 × 10^−5 mSv/MBq | ED Contr., Stomach Wall [1]: 1.31 × 10^−3 mSv/MBq | ED Contr., Testes [1]: 3.38 × 10^−4 mSv/MBq | ED Contr., Thymus [1]: 7.69 × 10^−5 mSv/MBq | ED Contr., Thyroid [1]: 2.83 × 10^−4 mSv/MBq | ED Contr., Total Body [1]: 0.00 mSv/MBq | ED Contr., Urinary Bladder Wall [1]: 2.50 × 10^−3 mSv/MBq | OD, Adrenals [2]: 1.42 × 10^−2 mSv/MBq | OD, Brain [2]: 4.69 × 10^−3 mSv/MBq | OD, Esophagus [2]: 9.03 × 10^−3 mSv/MBq | OD, Eyes [2]: 6.91 × 10^−3 mSv/MBq | OD, Gall Bladder Wall [2]: 5.04 × 10^−2 mSv/MBq | OD, Heart Wall [2]: 9.46× 10^−3 mSv/MBq | OD, Kidneys [2]: 2.62 × 10^−2 mSv/MBq | OD, Left Colon [2]: 1.37 × 10^−2 mSv/MBq | OD, Liver [2]: 2.33 × 10^−2 mSv/MBq | OD, Lungs [2]: 7.88 × 10^−3 mSv/MBq | OD, Osteogenic Cells [2]: 2.12 × 10^−2 mSv/MBq | OD, Pancreas [2]: 3.05 × 10^−2 mSv/MBq | OD, Prostate [2]: 1.30 × 10^−2 mSv/MBq | OD, Rectum [2]: 1.38 × 10^−2 mSv/MBq | OD, Red Marrow [2]: 1.39 × 10^−2 mSv/MBq | OD, Right Colon [2]: 2.40 × 10^−2 mSv/MBq | OD, Salivary Glands [2]: 7.90 × 10^−3 mSv/MBq | OD, Small Intestine [2]: 1.84 × 10^−2 mSv/MBq | OD, Spleen [2]: 9.08 × 10^−3 mSv/MBq | OD, Stomach Wall [2]: 1.09 × 10^−2 mSv/MBq | OD, Testes [2]: 8.45 × 10^−3 mSv/MBq | OD, Thymus [2]: 8.33 × 10^−3 mSv/MBq | OD, Thyroid [2]: 7.08 × 10^−3 mSv/MBq | OD, Total Body [2]: 9.76 × 10^−3 mSv/MBq | OD, Urinary Bladder Wall [2]: 6.26 × 10^−2 mSv/MBq | organ dose, gall bladder (mean ± SD, three piglets): 50.4 ± 37.5 µSv/MBq | organ dose, kidneys (mean ± SD, three piglets): 26.2 ± 2.2 µSv/MBq | organ dose, liver (mean ± SD, three piglets): 23.3 ± 13.6 µSv/MBq | organ dose, pancreas (mean ± SD, three piglets): 30.5 ± 27.3 µSv/MBq | organ dose, right colon (mean ± SD, three piglets): 24.0 ± 7.4 µSv/MBq | organ dose, urinary bladder (mean ± SD, three piglets): 62.6 ± 28.9 µSv/MBq | contribution to the ED, lungs [3]: 0.9 ± 0.05 µSv/MBq | contribution to the ED, red marrow [3]: 1.7 ± 0.3 µSv/MBq | contribution to the ED, right colon [3]: 1.2 ± 0.4 µSv/MBq | contribution to the ED, stomach [3]: 1.3 ± 0.4 µSv/MBq | contribution to the ED, urinary bladder [3]: 2.5 ± 1.1 µSv/MBq | ED to humans, preclinical (piglet biokinetic data, ICRP103 wT): 12.4 µSv/MBq | ED to humans, corrected (~300 MBq iv, corrected for up to 40% underestimation): about 6.2 mSv

— paper PMC7248880, “Preclinical Incorporation Dosimetry of [^18F]FACH—A Novel ^18F-Labeled MCT1/MCT4 Lactate Transporter Inhibitor for Imaging Cancer Metabolism with PET” (Molecules, 2020)
